System: Meloidogyne incognita
Experiment: Test against Meloidogyne spp., soil pot test (tomato)
Format: in vivo
Details: 10 ppm active ingredient in soil contaminated with Meloidogyne incognita; tomato (Kurihara) in pots, greenhouse, 4 weeks; from root knot index
Description: Test Against Meloidogyne spp. Soil pot Test
Preparation of Test Agent:
1 Part of the active compound is impregnated to 99 parts of pumice to obtain fine granules.
The test agent prepared as mentioned above was added to soil contaminated with Meloidogyne incognita to a chemical concentration of 10 ppm and homogeneously mixed by stirring. A pot (1/5000 are) was filled with the soil. About 20 seeds of tomato (variety: Kurihara) were sown per pot. After cultivation in a greenhouse for 4 weeks, they were carefully pulled out not to damage the roots and the root knot index and the controlling effect were determined as follows.
Degree of damage 0: No knots were formed (Complete control).
1: A few knots were formed.
2: Knots were formed to a medium extent.
3: Knots were formed to an intense extent.
4: Knots were formed to the most intense extent (which corresponds to non-treatment). [formula]
The controlling effect of the compounds tested can then be evaluated according to the following equation: [formula]
The evaluation of the controlling effects of the compounds according to the present invention was done on the basis of the values of the controlling effect which can be obtained in the above-mentioned way and were connected with the following standards:
a: Controlling effect 100-71%
b: Controlling effect 70-50%
c: Controlling effect less than 50%

Compound | Evaluation of controlling effect
FC(F)=C(F)CCSc1ncc(Cl)s1 [Example 1, 5-chloro-2-(3,4,4-trifluoro-3-butenylthio)thiazole] | a (Controlling effect 100-71%)
[O-][S+](CCC(F)=C(F)F)c1ncc(Cl)s1 (stereo not drawn) [Example 2, 5-chloro-2-(3,4,4-trifluoro-3-butenylsulfinyl)thiazole] | a (Controlling effect 100-71%)
O=S(=O)(CCC(F)=C(F)F)c1ncc(Cl)s1 [Example 3, 5-chloro-2-(3,4,4-trifluoro-3-butenylsulfonyl)thiazole] | a (Controlling effect 100-71%)
